Measured values: patent US12517098B2, “Monitoring polysorbate hydrolysis in pharmaceutical formulations using an ultrasensitive extraction-free fatty acid quantitation method” (Regeneron Pharmaceuticals, Inc., priority 2021, dated 2026)

Tests used:
[1] = Loss of heavy-isotope-labeled fatty acids during incubation (adsorption to container); format: physicochemical; details: 1% PS20, 200 mg/mL mAb3, 37° C., plastic tubes
Protocol: The hydrolysis of PS20 in mAb formulations used for the fatty acid quantitation method of the invention was optimized by mixing 60 μL of 200 mg/mL mAb-3 (10 mM histidine, pH 6.3) with 0.62 μL, 1.26 μL, 3.2 μL and 6.8 μL 10% PS20 with or without 1.5 μL ISTD mixture (200 μg/mL lauric-d23 acid, 40 μg/mL myristic-d27 acid, and oleic acid-^13C18 in 20% methanol) in Eppendorf plastic tubes (category number 022431064) or Waters glass vials (SKU 600000668CV), […] Incubation samples were analyzed by LC multiple reaction monitoring (LC-MRM) after extraction (Table 2). Incubation conditions were optimized for measuring fatty acid content using LC-MRM after extraction. Fatty acids were extracted from mAb solution using an extraction protocol developed by Honemann et al. with an optimized precipitation buffer and extraction time (Honemann et al.). […] Subsequently, 40 μL of the supernatant was transferred to a 96-well plate, and 5 μL was subjected to LC-MRM for quantitation. […] Elution was performed at 0.4 mL/minute, and peaks at 1-7 minutes were analyzed using an ESI source operating in negative mode, with a gas temperature of 200° C., gas flow of 12 L/minute, nebulizer gas pressure of 20 psi, sheath gas temperature of 300° C., sheath gas flow of 11 L/min, capillary voltage of −3000 V, and nozzle voltage of 500 V. Lauric acid and lauric-d23 acid were monitored at 199.1/199.1 and 222.3/222.3; myristic acid and myristic-d27 acid were monitored at 227.2/227.2 and 254.4/254.4; palmitic acid, oleic acid, oleic acid-^13C18, stearic acid, and linoleic acid were monitored at 255.2/255.2, 281.2/281.2, 299.2/299.2, 283.2/283.2, and 279.2/279.2 with CE 5, respectively. […] Peak integration was performed by Skyline, and fatty acid concentrations were calculated based on a calibration curve created from a spiked-in fatty acid concentration plot against To investigate why fatty acids were lost during incubation, isotope-labeled fatty acids were employed. […]

[2] = Solubility of free fatty acid in the formulation; format: physicochemical; details: mAb formulation, aqueous with cosolvent or surfactant or cyclodextrin

Row | SMILES | fatty acid lost after 6-day incubation [1] [%] | solubility [2] [µg/mL]
1 | CCCCCCCCCCCCCC(=O)O [myristic acid] | 34 | –
2 | CCCCCCCCCCCC(=O)O [lauric acid] | 50 | > 20
3 | CCCCCCCC/C=C\CCCCCCCC(=O)O [oleic acid] | 15 | –
